# Read-outs that look alike come from different tables or passages of the source.
# Key:
# [1] = tested on: Aspergillus flavus ATCC MYA-3631 (strain K); experiment: MIC determination against filamentous fungi (CLSI M38-A2); format: cell-based; conditions: MIC-0, 48 h at 35° C.
# Procedure, shortened: (§1)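 MIC-0, meaning no visible growth relative to growth control, was scored after 48 h at 35° C, in triplicate. Hemocytometer-counted spores from potato dextrose agar were inoculated at 5×10^5 CFU/mL final. The medium was MOPS-buffered (0.165 M) RPMI 1640 at pH 7.0, following CLSI M38-A2.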
# [2] = tested on: Aspergillus terreus ATCC MYA-3633 (strain M); experiment: as above; format: cell-based; conditions: MIC-0, 48 h at 35° C.
# Procedure, shortened: as §1
# [3] = tested on: Aspergillus nidulans ATCC 38163 (strain L); experiment: as above; format: cell-based; conditions: MIC-0, 48 h at 35° C.
# Procedure, shortened: as §1
# hERG channel = hERG channel (Homo sapiens, UniProt Q12809); experiment: in vitro; conditions: for IC50 at 60 min: human
# Text: The HEK-293 cell line stably expressing the hERG potassium channel (accession number U04270) referred to as hERG-HEK cells were received at passage 11 from Millipore (CYL3006, lot 2, Billerica, MA). [^3H]-Dofetilide (specific activity of 80 Ci/mmol; labeled on the N-methyl group) was obtained from American Radiolabeled Chemicals, St. Louis, MO Other chemicals and solvents were obtained from Sigma-Aldrich (Milwaukee, WI) with exceptions of polyethylenimine (PEI), which was obtained from Fluka/Sigma-Aldrich (St. Louis, MO), and Minimium Essential Medium (MEM) with GlutaMAX™ and phenol red, MEM non-essential amino acids solution (NEAA, 100×), G418 disulfate salt solution, fetal bovine serum (FBS), 0.05% Trypsin-EDTA 1× with phenol red, and Hank's balanced salt solution (HBSS), which were obtained from Life Technologies (Carlsbad, CA).
# The hERG-HEK cells were cultured according to the protocol provided by Millipore. Cells were maintained in MEM (with GlutaMAX™ and phenol red) supplemented with 10% FBS, 1% NEAA and 400 μg/mL G418 disulfate salt, and incubated at 37° C. in a humidified atmosphere with 5% CO2. Frozen aliquots of cells were transferred into T-75 cm^2 flasks and allowed to adhere for 4-8 h. The medium was replaced every 2 days. Passages were carried out at least 3 times after thawing at 6-day intervals. Cells were dissociated with trypsin/EDTA and seeded into new 150×25 mm dishes at 2-3×10^6 cells per dish and placed at 30° C., 5% CO2, for 40-48 h prior to membrane preparation. Membrane preparation occurred 6 days after the last passage (passage 20).
# Cell membrane preparation was based on previous methods. Cells were rinsed twice with HBSS at 37° C. and collected by scraping the dishes in ˜20 mL of ice-cold 0.32 M sucrose and homogenized on ice with a Teflon pestle using a Maximal Digital homogenizer (Fisher Scientific, Pittsburgh, PA) at ˜280 rpm for 30 sec. Homogenates were centrifuged at 300 g and 800 g for 4 min each at 4° C. Pellets were resuspended in 9 mL of ice-cold Milli-Q H2O and osmolarity restored by addition of 1 mL of 500 mM Tris buffer (pH 7.4) followed by suspension and centrifugation at 20,000 g for 30 min at 4° C. Pellets were homogenized in 2 mL assay buffer (50 mM Tris, 10 mM KCl, and 1 mM MgCl2, 4° C.) and aliquots of cell membrane suspensions were stored at −80° C. and thawed the day of the [^3H]-dofetilide binding assay. Protein content was determined prior to the assay using a Bradford protein assay with bovine albumin as the standard.
# [^3H]-Dofetilide binding assays using hERG-HEK293 cell membranes were based on previous methods. Assays determining concentration-response were conducted in duplicate, and three independent assays were performed for each analogue evaluated. Cell membrane suspension (5 μg) was added to duplicate tubes containing assay buffer, 25 μL of a single concentration of N,N-dialkylaminostilbene agent (FIDAS agent) (concentration range of 10 nM-100 μM for each experiment), and 25 μL of [^3H]-dofetilide (5 nM, final concentration) for an assay volume of 250 μL. Binding occurred for 60 min at 25° C. and was terminated by rapid filtration through Whatman GF/B filters, which were pre-soaked in 0.25% PEI overnight, using a Brandel cell/membrane harvester (M-48; Brandel Inc., Gaithersburg, MD). […] Radioactivity was determined by liquid scintillation spectrometry using the Tri-Carb 2100-TR Liquid Scintillation Analyzer (Perkin-Elmer Life and Analytical Sciences).
# [4] = Aspergillus flavus, 48 h, read-out: MIC
# [5] = Aspergillus terreus, 48 h, read-out: MIC
# [6] = Aspergillus nidulans, ATCC38163, 48 h, read-out: MIC
# Sequence of hERG channel (Q12809 whole entry): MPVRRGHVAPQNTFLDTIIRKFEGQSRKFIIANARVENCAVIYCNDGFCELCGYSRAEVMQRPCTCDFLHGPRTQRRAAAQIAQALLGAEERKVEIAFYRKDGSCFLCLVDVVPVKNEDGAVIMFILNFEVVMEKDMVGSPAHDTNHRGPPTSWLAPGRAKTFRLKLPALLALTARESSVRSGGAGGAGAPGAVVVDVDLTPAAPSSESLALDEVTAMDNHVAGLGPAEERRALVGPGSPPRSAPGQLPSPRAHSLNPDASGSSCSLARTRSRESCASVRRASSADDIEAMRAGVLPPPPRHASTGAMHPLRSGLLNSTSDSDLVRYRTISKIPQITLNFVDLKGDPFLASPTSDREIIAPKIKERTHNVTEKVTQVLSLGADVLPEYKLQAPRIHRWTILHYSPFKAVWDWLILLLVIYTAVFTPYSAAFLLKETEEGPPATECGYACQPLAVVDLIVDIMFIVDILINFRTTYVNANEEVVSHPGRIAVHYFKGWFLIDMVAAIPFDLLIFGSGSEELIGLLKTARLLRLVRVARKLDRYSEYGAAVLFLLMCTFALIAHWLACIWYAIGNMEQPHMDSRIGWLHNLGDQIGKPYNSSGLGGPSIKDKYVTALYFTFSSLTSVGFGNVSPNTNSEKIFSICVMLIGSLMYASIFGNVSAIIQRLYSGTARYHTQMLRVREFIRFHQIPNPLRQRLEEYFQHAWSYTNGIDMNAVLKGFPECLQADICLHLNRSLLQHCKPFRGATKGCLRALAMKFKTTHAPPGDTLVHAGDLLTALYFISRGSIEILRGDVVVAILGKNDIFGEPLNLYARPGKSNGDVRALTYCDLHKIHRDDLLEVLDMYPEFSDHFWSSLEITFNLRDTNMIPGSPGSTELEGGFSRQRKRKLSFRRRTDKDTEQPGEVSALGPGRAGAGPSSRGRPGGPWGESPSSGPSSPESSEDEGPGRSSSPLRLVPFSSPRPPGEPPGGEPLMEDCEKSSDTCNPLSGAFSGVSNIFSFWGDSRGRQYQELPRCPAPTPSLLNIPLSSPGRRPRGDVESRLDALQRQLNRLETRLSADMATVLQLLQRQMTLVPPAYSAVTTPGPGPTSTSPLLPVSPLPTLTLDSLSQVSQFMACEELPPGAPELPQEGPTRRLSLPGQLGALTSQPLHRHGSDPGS
"MIC [1, 4]",MIC [1],"MIC [2, 5]",MIC [2],"MIC [3, 6]",MIC [3],Structure (SMILES),IC50 at 60 min (hERG channel),hERG inhibition (in words) (hERG channel)
7.8 to 15.6 µg/mL,7.8 µg/mL,> 31.3 µg/mL,,7.8 to 15.6 µg/mL,7.8 µg/mL,Fc1ccc(N/N=C/c2ccc(-c3ccc(/C=N/Nc4ccc(F)cc4)cc3)cc2)cc1 [Compound 17b],,
7.8 µg/mL,,31.3 µg/mL,,7.8 µg/mL,,Fc1ccc(N/N=C/c2ccc(-c3cccc(/C=N/Nc4ccc(F)cc4F)c3)cc2)c(F)c1 [Compound 20a],,
> 31.3 µg/mL,,> 31.3 µg/mL,,7.8 µg/mL,,"C/C(=N\Nc1ccc(F)cc1)c1ccc(-c2ccc(/C(C)=N/Nc3ccc(F)cc3)cc2)cc1 [Compound 17c, 4,4′-bis((E)-1-(2-(4-fluorophenyl)hydrazono)ethyl)-1,1′-biphenyl]",> 30 µM,no hERG inhibition

# More lines, now with the values behind:
Structure (SMILES),"MIC [1, 4]",MIC [1],"MIC [2, 5]",MIC [2],"MIC [3, 6]",MIC [3],IC50 at 60 min (hERG channel),hERG inhibition (in words) (hERG channel)
C(=N\Nc1ccccc1)/c1ccc(-c2cccc(/C=N/Nc3ccccc3)c2)cc1 [Compound 7a],1.95 to 3.9 µg/mL,3.9 µg/mL,7.8 to 15.6 µg/mL,15.6 µg/mL,1.95 to 3.9 µg/mL,1.95 µg/mL,,
COc1ccc(N/N=C/c2ccc(-c3ccc(/C=N/Nc4ccc(OC)cc4)cc3)cc2)cc1 [Compound 15b],> 31.3 µg/mL,,> 31.3 µg/mL,,7.8 to 15.6 µg/mL,7.8 µg/mL,> 30 µM,
Fc1ccc(N/N=C/c2ccc(-c3cccc(/C=N/Nc4ccc(F)cc4)c3)cc2)cc1 [Compound 17a],15.6 µg/mL,,> 31.3 µg/mL,,1.95 to 3.9 µg/mL,3.9 µg/mL,> 30 µM,
COc1ccc(N/N=C/c2ccc(-c3cccc(/C=N/Nc4ccc(OC)cc4)c3)cc2)cc1 [Compound 15a],> 31.3 µg/mL,,> 31.3 µg/mL,,31.3 µg/mL,,> 30 µM,
Fc1cccc(N/N=C/c2ccc(-c3cccc(/C=N/Nc4cccc(F)c4)c3)cc2)c1 [Compound 12a],1.95 to 3.9 µg/mL,3.9 µg/mL,> 31.3 µg/mL,,7.8 to 15.6 µg/mL,7.8 µg/mL,,

# Reference: US11851391B2, “Antifungal compounds and methods of forming the same” (University of Kentucky Research Foundation, priority 2018, dated 2023)
